Experimental data published in patent US20230382869A1, “Phenyl-3,4-dihydroisoquinolin-2(1h)-yl-ethan-1-one derivatives as dopamine d1receptor positive allosteric modulators” (Eli Lilly and Company, priority 2020, published 2023).
Where two headings read alike, the source gives them in different places. Marks after values point to notes of the source that are not given here.

Legend:
human D1 receptor = human D1 receptor (Homo sapiens (Human), UniProt P21728); test: Human D1 Receptor PAM Assay (cAMP HTRF, potentiator mode); type: cell-based
From the text: The PAM activity of the compounds of the present invention may be measured essentially as described in Svensson et al., An Allosteric Potentiator of the Dopamine D1 Receptor Increases Locomotor Activity in Human D1 Knock-in Mices without Casusing Stereotypy or Tachyphylaxis. J. Pharmacol. Exp. Ther. (2017) 360:117-128.
More specifically, HEK293 cells that stably express the human D1 receptor (Accession number NM_000794) are generated by gene transduction using the pBABE-bleo retroviral vector and selected with Zeocin™ (InvivoGen). At approximately 80% confluency, the cells are harvested using TrypLE™ Express (Gibco), suspended in FBS plus 8% DMSO, and stored in liquid nitrogen. On the day of the assay, cells are thawed and resuspended in STIM buffer (Hanks Balanced Salt Solution supplemented with 0.1% BSA, 20 mM HEPES, 500 μM IBMX, and 100 μM ascorbic acid).
Test compound is serially diluted (1:2) with DMSO into assay plates (ProxiPlate-384 Plus, PerkinElmer) using acoustic dispensing (Labcyte) to provide 20 concentrations for full response curves. Test compound (80 nL) is added to 5 μL STIM buffer containing 2000 cells, and 5 μL of a 2×concentration dopamine solution in STIM buffer that will generate an EC20 level response (24 nM in stock solution, or 12 nM final) and a final DMSO concentration in the well of 0.8%. Plates are incubated at room temperature for a total reaction time of 60 min.
cAMP production is quantified using HTRF® detection (Cisbio) according to the manufacturer's instructions. Generally, lysis buffer containing anti-cAMP cryptate (5 μL) and D2-conjugate (from HTRF® kit)(5 μL) is added to the wells, plates are incubated for an additional 60-90 min, and the time-resolved fluorescence is detected using an EnVision™ plate reader (PerkinElmer). Fluorescence data is converted to cAMP concentrations using a cAMP standard curve and analyzing using a 4-parameter non-linear logistic equation (Genedata Screener, version 13.0.5-standard). For potentiator mode concentration-response curves, results are expressed as percent of the window between a response at EC20 concentration of dopamine alone (normalized to 0%) and the maximum response to dopamine (defined by response to 5 μM dopamine, final concentration, normalized as 100%). Absolute EC50 values are calculated based on the maximum and minimum responses of the control agonist (dopamine). The % Potentiation (% Top) is determined from the fitted top of the concentration response curve.

CYP3A = test: Intrinsic clearance CLint,CYP3A,liver; type: in vitro ADME; settings: human
[1] = tested on: human D1 receptor knock-in mice; test: Basal (Habituated) Locomotor Activity; type: in vivo, mouse; settings: for Basal Locomotor Activity (Total Ambulations for 60 min) Means: N = 8/group
Experimental: Locomotor activity is measured using an automated system to track movement in mice. Monitoring of mouse locomotor activity behaviors take place in transparent plastic shoebox cages having dimensions of 45×25×20 cm, with a 1 cm depth of wood chips for absorbent bedding, and covered with a ventilated filtered plastic cage top. Cages were placed in a rectangular frame containing a grid of 12 photocell beams in an 8×4 configuration (Kinder Scientific, Poway, CA) that is positioned 2.5 centimeters from the floor of the cage for the detection of body movements (ambulations) and recorded by computer.
Male human D1 receptor knock-in mice are placed in chambers and allowed to habituate to the chambers for 60 min. During the habituation period, the mice show decreasing locomotion over time, as expected. Following administration of a compound of the invention, animal movement is found to increase in a dose-dependent fashion.
The mice are randomly assigned to treatment groups. In the dose response study, each mouse is placed individually into one of the locomotor activity boxes for a 60 min. habituation period. The mice are then dosed orally using test compound in a 20% hydroxypropyl-betacyclodextrin vehicle and using a 10 mL/kg dose volume. After dosing, the mice are placed back into the LMA boxes and the total number of ambulations is recorded per 10 min interval for each mouse over a 60 min measurement period. Statistical analysis is carried out using one-way ANOVA followed by post-hoc analysis using Dunnett's Comparison test.

[2] = In vivo tolerability in normal rats; settings: broad dose range
[3] = Fraction unbound in vitro (equilibrium dialysis); type: in vitro ADME
Experimental: Example 7, 2-(2-chloro-6-fluoro-phenyl)-1-[(1S,3R)-6-fluoro-3-(hydroxymethyl)-5-(3-hydroxy-3-methyl-butyl)-1-methyl-3,4-dihydro-1H-isoquinolin-2-yl]ethenone, was orally dosed to male mouse from 3 mg/kg to 60 mg/kg in fed condition, and the plasma and brain concentration was determined 1 hr post-dose. The fraction unbound of the compound was determined in vitro as described previously (Zamek-Gliszczynski M J, et al., Validation of 96-well equilibrium dialysis with non-radiolabeled drug for definitive measurement of protein binding and application to clinical development of highly-bound drugs, J. Pharm. Sci. (2011) 100: 2498-2507). The ratio (Kpuu) of unbound brain concentration (Cu, brain) vs. unbound plasma concertation (Cu, plasma) was determined as described previously (Raub T J, et al., Brain Exposure of Two Selective Dual CDK4 and CDK6 Inhibitors and the Antitumor Activity of CDK4 and CDK6 Inhibition in Combination with Temozolomide in an Intracranial Glioblastoma Xenograft. Drug Metab. Dispos. (2015) 43:1360-71). The data presented below in Table 3 for Example 7 are averages from 3 animals at each dose. “Con.” refers to concentration.

[4] = Passive permeability in MDCKII cell line (Papp); type: in vitro ADME; settings: dog, MDCK
From the text: Papp is the passive permeability measured in MDCKII cell line in house

Sequence of human D1 receptor (P21728 whole entry): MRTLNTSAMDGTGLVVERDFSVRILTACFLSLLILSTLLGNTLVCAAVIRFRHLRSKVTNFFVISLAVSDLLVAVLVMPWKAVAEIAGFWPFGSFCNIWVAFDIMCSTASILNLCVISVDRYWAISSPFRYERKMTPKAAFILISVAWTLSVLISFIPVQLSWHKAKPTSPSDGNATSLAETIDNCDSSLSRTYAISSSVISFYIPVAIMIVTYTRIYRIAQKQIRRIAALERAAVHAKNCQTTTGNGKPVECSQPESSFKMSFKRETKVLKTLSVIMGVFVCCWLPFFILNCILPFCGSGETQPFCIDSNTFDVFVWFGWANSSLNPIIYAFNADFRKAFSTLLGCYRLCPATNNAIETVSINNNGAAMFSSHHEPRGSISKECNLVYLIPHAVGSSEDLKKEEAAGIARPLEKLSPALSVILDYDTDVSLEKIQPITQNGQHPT

C[C@H]1c2ccc(F)c(CCC(C)(C)O)c2C[C@H](CO)N1C(=O)Cc1c(F)cccc1Cl [Example 7, 2-(2-chloro-6-fluoro-phenyl)-1-[(1S,3R)-6-fluoro-3-(hydroxymethyl)-5-(3-hydroxy-3-methyl-butyl)-1-methyl-3,4-dihydro-1H-isoquinolin-2-yl]ethanone]
EC50 (human D1 receptor; HEK293 cells expressing human D1, with EC20 dopamine (12 nM final), cAMP, read-out: Abs EC50): 10.2 ± 1.4 nM | % Top (% Potentiation) (human D1 receptor; fitted top, 0% = EC20 dopamine alone, 100% = 5 μM dopamine): 90.9% | microsomal CLint (CYP3A): 25.5 µL/min/mg | Basal Locomotor Activity (Total Ambulations for 60 min) Means ([1]; 3.0 mg/kg PO): 538 | Basal Locomotor Activity (Total Ambulations for 60 min) Means ([1]; 6.0 mg/kg PO): 1111 | Basal Locomotor Activity (Total Ambulations for 60 min) Means ([1]; 10 mg/kg PO): 1471*** | Basal Locomotor Activity (Total Ambulations for 60 min) Means ([1]; 30 mg/kg PO): 3937**** | Basal Locomotor Activity (Total Ambulations for 60 min) Means ([1]; 60 mg/kg PO): 4613**** | in vivo efficacy in locomotor activation ([1]; 10, 30, and 60 mg/kg PO, habituated mice): significant in vivo efficacy | basal movement ([1]; oral dose response, 3-60 mg/kg): increase basal movement in a dose dependent manner | tolerability / toxicity in vivo [2]: generally well tolerated | fraction unbound ([3]; fraction unbound in brain, read-out: fu, brain): 0.0249 | fraction unbound ([3]; fraction unbound in plasma, read-out: fu, plasma): 0.0141 | Papp [4]: 37.9 ×10⁻⁶ cm/s
